Test results from ChEMBL document CHEMBL1152446, “Identification of an orally efficacious matrix metalloprotease 12 inhibitor for potential treatment of asthma” (J Med Chem, 2009).
pIC50: −log10 of the molar value.

Key:
in vitro [1] = details: rat, liver microsomes
in vitro [2] = details: human, liver microsomes
Collagenase 3 = Collagenase 3 (Homo sapiens, UniProt P45452); assay: Inhibition of human recombinant MMP13
[3] = Metabolic stability in C57BL/6 mouse liver microsome assessed as half life; assay type: ADME; details: liver microsomes
[4] = Oral bioavailability in C57BL/6 mouse at 30 mg/kg; assay type: ADME, organism-based; details: in vivo
[5] = Clearance in C57BL/6 mouse at 2 mg/kg, iv; assay type: ADME, organism-based; set-up: dose 2 mg/kg, route intravenous; details: in vivo
[6] = Cmax in C57BL/6 mouse at 30 mg/kg, po; assay type: ADME, organism-based; set-up: dose 30 mg/kg, route oral; details: in vivo
[7] = Volume of distribution at steady state in C57BL/6 mouse at 2 mg/kg, iv; assay type: ADME, organism-based; set-up: dose 2 mg/kg, route intravenous; details: in vivo, read-out: Vdss
[8] = Half life in C57BL/6 mouse at 30 mg/kg, po; assay type: ADME, organism-based; set-up: dose 30 mg/kg, route oral; details: in vivo

SMILES | half-life (in vitro [1]) [min] | half-life (in vitro [2]) [min] | pIC50 (Collagenase 3) | half-life [3] [min] | bioavailability [4] [%] | clearance [5] [mL/min/kg] | Cmax [6] [ng/mL] | Vd [7] [L/kg] | half-life [8] [min]
COC(=O)Nc1ccc2c(c1)sc1ccc(S(=O)(=O)N[C@H](C(=O)O)C(C)C)cc12 | > 30 | > 30 | < 4.60 | > 30 | – | – | – | – | –
Cc1ccc(OC(=O)Nc2ccc3c(c2)sc2cc(S(=O)(=O)N[C@H](C(=O)O)C(C)C)ccc23)cc1 | > 30 | > 30 | 6.63 | > 30 | – | – | – | – | –
COC(=O)Nc1ccc2c(c1)sc1ccc(S(=O)(=O)N[C@@H](C(=O)O)C(C)C)cc12 | > 30 | > 30 | < 4.60 | > 30 | – | – | – | – | –
COC(=O)Nc1ccc2sc3cc(S(=O)(=O)N[C@@H](C(=O)O)C(C)C)ccc3c2c1 | > 30 | > 30 | 8.91 | > 30 | 19 | 59.9 | 738 | 3.7 | 276
CC(C)[C@H](NS(=O)(=O)c1ccc2c(c1)sc1cc(NC(=O)Oc3ccccc3)ccc12)C(=O)O | > 30 | > 30 | 6.65 | > 30 | – | – | – | – | –
CC(C)[C@H](NS(=O)(=O)c1ccc2c(c1)sc1cc(NC(=O)Oc3ccc(F)cc3)ccc12)C(=O)O | > 30 | > 30 | 6.66 | > 30 | – | – | – | – | –
CCOC(=O)Nc1ccc2c(c1)sc1cc(S(=O)(=O)N[C@H](C(=O)O)C(C)C)ccc12 | > 30 | > 30 | 7.25 | > 30 | – | – | – | – | –
CC(C)[C@@H](NS(=O)(=O)c1ccc2c(c1)sc1ccc(NS(C)(=O)=O)cc12)C(=O)O | – | – | 6.56 | – | – | – | – | – | –
CC(C)[C@H](NS(=O)(=O)c1ccc2c(c1)sc1ccc(NS(C)(=O)=O)cc12)C(=O)O | – | – | 5.95 | – | – | – | – | – | –
CCOC(=O)Nc1ccc2oc3cc(S(=O)(=O)N[C@H](C(=O)O)C(C)C)ccc3c2c1 | > 30 | > 30 | – | > 30 | – | – | – | – | –
COC(=O)Nc1ccc2sc3cc(S(=O)(=O)N[C@H](C(=O)O)C(C)C)ccc3c2c1 | > 30 | > 30 | 7.19 | > 30 | 34 | 31.2 | 1820 | 1.7 | 186
CC(C)[C@H](NS(=O)(=O)c1ccc2sc3cc(NS(C)(=O)=O)ccc3c2c1)C(=O)O | – | – | < 4.60 | – | – | – | – | – | –
CC(C)[C@H](NS(=O)(=O)c1ccc2c(c1)oc1cc(N3CCOC3=O)ccc12)C(=O)O | > 30 | > 30 | 6.43 | > 30 | – | – | – | – | –
CC(C)[C@H](NS(=O)(=O)c1ccc2c(c1)oc1cc(NC(=O)NCCc3cccs3)ccc12)C(=O)O | > 30 | > 30 | 6.73 | > 30 | – | – | – | – | –
CC(C)[C@H](NS(=O)(=O)c1ccc2c(c1)oc1cc(N)ccc12)C(=O)O | > 30 | > 30 | 5.96 | > 30 | – | – | – | – | –
C#CCCOC(=O)Nc1ccc2c(c1)sc1cc(S(=O)(=O)N[C@H](C(=O)O)C(C)C)ccc12 | > 30 | > 30 | 7.64 | > 30 | – | – | – | – | –
CC(C)OC(=O)Nc1ccc2c(c1)sc1cc(S(=O)(=O)N[C@H](C(=O)O)C(C)C)ccc12 | > 30 | > 30 | 6.83 | > 30 | – | – | – | – | –
CC(C)[C@H](NS(=O)(=O)c1ccc2sc3ccccc3c2c1)C(=O)O | – | – | 4.22 | – | – | – | – | – | –
CC(C)COC(=O)Nc1ccc2c(c1)sc1cc(S(=O)(=O)N[C@H](C(=O)O)C(C)C)ccc12 | > 30 | > 30 | 6.48 | > 30 | – | – | – | – | –
